Source: patent publication US6887896B1, “7-[(7-Alkoxy)-chrom-3-en-6-yl]-heptatrienoic acid and 7-[(3-alkoxy)-5,6-dihydronaphthalen-2-yl]-heptatrienoic acid derivatives having serum glucose reducing activity” (Allergan, Inc., priority 2003, dated 2005)

What was measured:
RARβ [1] = biological target: T1, RARβ (Homo sapiens, UniProt P10826); assay: ligand binding assay, RARβ; conditions: read-out: RAR Bind. Ki β
T1 sequence (P10826 1-455): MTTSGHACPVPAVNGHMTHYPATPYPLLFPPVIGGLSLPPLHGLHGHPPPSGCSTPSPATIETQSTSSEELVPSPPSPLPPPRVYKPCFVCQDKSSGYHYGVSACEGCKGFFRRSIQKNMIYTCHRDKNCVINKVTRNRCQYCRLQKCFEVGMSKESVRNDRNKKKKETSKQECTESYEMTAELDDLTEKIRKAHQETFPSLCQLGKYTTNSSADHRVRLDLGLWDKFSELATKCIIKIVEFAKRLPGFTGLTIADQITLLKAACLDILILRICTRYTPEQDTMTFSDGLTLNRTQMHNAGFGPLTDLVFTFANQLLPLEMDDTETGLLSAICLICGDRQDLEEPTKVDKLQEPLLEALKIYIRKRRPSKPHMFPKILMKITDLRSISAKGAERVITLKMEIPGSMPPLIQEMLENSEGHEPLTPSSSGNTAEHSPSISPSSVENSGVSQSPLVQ
In short: (§1)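 Binding of compounds to several retinoid receptor subtypes was measured. Results are given as Ki values in nanomolar concentration, derived per Cheng et al.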

RXRγ = biological target: T2, RXRγ (UniProt P28705); assay: holoreceptor transactivation assay, RXRγ; format: cell-based; conditions: for EC50: holoreceptor transactivation, read-out: RXR Trans. EC50 γ; for RXR Trans. efficacy (number in parentheses) γ: percentage compared to the standard compound
T2 sequence (P28705 1-463): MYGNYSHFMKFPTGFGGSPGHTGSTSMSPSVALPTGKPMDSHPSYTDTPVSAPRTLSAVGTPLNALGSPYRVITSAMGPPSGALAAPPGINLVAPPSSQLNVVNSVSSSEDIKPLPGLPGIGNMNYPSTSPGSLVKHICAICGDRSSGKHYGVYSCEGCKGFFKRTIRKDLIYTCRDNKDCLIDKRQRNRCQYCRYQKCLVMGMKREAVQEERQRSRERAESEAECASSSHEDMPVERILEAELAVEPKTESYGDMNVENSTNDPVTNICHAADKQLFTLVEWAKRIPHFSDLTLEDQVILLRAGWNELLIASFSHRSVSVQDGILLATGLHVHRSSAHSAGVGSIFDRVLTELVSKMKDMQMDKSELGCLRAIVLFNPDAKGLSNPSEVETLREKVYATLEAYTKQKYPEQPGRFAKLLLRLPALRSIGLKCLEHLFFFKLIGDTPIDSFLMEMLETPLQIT
Source text: (§2) Specifically, one such assay is a chimeric receptor transactivation assay which tests for agonist-like activity in the R RAPE and RAR7 receptor subtypes, and which is based on work published by Feigner, P. L. and Holm, M (1989) Focus, 112 is described in detail in U.S. Pat. No. 5,455,265. The specification of U.S. Pat. No. 5,455,265 is hereby expressly incorporated by reference. A holoreceptor transactivation assay and a ligand binding assay which measure the antagonist/agonist like activity of the compounds of the invention, or their ability to bind to the several retinoid receptor subtypes, respectively, are described in published PCT Application No. WO WO93/11755 (particularly on pages 30-33 and 37-41) published on Jun. 24, 1993, the specification of which is also incorporated herein by reference. A detailed experimental procedure for holoreceptor transactivations has been described by Heyman et al. Cell 68, 397-406, (1992); Allegretto et al. J. Biol. Chem. 268, 26625-26633, and Mangelsdorf et al. The Retinoids: Biology, Chemistry and Medicine, pp 319-349, Raven Press Ltd., New York, which are expressly incorporated herein by reference. The results obtained in this assay are expressed in EC50 numbers, as they are also in the chimeric receptor transactivation assay. The results of the ligand binding assay are expressed in Ki numbers. (See Cheng et al. Biochemical Pharmacology Vol. 22 pp 3099-3108, expressly incorporated herein by reference.)
(§3) Efficacy in a transactivation assay is expressed as a percentage of the maximum potency attained by the compound compared to a standard which, in this case, is the compound named (2E,4E,1′S,2′S)-3-methyl-5-[2′-methyl-2′-(5,5,8,8-tetramethyl-5,6,7,8-tetrahydro-naphthalen-2-yl)-cyclopropyl]-penta-2,4-dienoic acid. This standard compound is described in U.S. Pat. No. 6,114,533.
(§4) The specification of this application for patent is organized in several sections in accordance with structural Formulas A through F each of which discloses a group of preferred compounds within the scope of the invention. Tables that disclose the activity of certain exemplary compounds of the invention in the above-described RXR receptor transactivation and binding assays are found in the corresponding sections. […] The transactivation data pertaining to the activation of RXR receptors were obtained in the holoreceptor assay.
(§5) Generally speaking, in the tables disclosing the results of transactivation and binding assays the numbers in parentheses indicate efficacy as a percentage compared to the standard compound, (2E,4E,1′S,2′S)-3-methyl-5-[2′-methyl-2′-(5,5,8,8-tetramethyl-5,6,7,8-tetrahydro-naphthalen-2-yl)cyclopropyl]-penta-2,4-dienoic acid and the other numbers indicate the measured EC50 and K; in nanomolar concentration.

RARβ [2] = biological target: T3, RARβ (Homo sapiens, UniProt P10826); assay: chimeric receptor transactivation assay, RARβ; format: cell-based; conditions: for EC50: chimeric receptor transactivation, read-out: RAR Trans. EC50 β; for Emax: percentage compared to the standard compound, read-out: RAR Trans. efficacy (number in parentheses) β
T3 sequence (P10826 183-417 limits assumed): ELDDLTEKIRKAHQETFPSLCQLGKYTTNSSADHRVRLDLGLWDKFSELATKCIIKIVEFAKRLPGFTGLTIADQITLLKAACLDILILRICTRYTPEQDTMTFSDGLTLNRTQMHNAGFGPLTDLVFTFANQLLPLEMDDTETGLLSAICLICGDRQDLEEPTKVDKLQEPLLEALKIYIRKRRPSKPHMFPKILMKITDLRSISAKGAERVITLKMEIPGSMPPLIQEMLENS
Source text: as §2, §3, §4, §5

RXRα [3] = biological target: T4, RXRα (Homo sapiens, UniProt P19793); assay: ligand binding assay, RXRα; conditions: read-out: RXR Bind Ki α
T4 construct: expressed in transfected cells
T4 sequence (P19793 1-462): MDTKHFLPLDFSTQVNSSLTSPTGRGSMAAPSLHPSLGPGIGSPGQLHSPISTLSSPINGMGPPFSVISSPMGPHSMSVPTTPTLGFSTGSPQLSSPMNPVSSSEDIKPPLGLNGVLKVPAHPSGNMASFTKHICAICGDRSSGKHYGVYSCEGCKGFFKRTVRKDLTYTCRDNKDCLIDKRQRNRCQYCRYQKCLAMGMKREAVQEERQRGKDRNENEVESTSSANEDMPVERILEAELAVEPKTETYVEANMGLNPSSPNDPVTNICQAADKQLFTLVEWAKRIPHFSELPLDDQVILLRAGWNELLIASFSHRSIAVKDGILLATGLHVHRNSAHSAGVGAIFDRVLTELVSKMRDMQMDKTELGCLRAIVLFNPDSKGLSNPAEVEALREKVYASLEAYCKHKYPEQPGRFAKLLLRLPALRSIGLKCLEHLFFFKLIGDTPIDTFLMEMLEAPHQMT
In short: as §1

RXRα [4] = biological target: T4, RXRα; assay: holoreceptor transactivation assay, RXRα; format: cell-based; conditions: for EC50: holoreceptor transactivation, read-out: RXR Trans. EC50 α; for Emax: percentage compared to the standard compound, read-out: RXR Trans. efficacy (number in parentheses) α
In short: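 Cells carrying either full-length RXR (holoreceptor) or chimeric RAR receptors were exposed to compound and reporter transactivation recorded. Potency was expressed as EC50 in nanomolar. Efficacy was expressed as percent of the maximal response of a reference cyclopropyl-tetramethyltetrahydronaphthalene penta-2,4-dienoic acid.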

SMILES	Ki (RARβ [1]) [nM]	EC50 (RXRγ) [nM]	EC50 (RARβ [2]) [nM]	Emax (RARβ [2]) [%]	Ki (RXRα [3]) [nM]	EC50 (RXRα [4]) [nM]	RXR Trans. efficacy (number in parentheses) γ (RXRγ) [%]	Emax (RXRα [4]) [%]
CCOc1cc2c(cc1\C(=C/C=C/C(C)=C/C(=O)O)CC)C(C)=CC(C)(C)O2 [Compound 46, 7-(7-Ethoxy-2,2,4-trimethyl-2H-chromen-6-yl)-3-methyl-nona-2E,4E,6Z-trienoic acid]	614	> 1000	305	6	199	> 1000	–	–
COc1c(\C(C)=C/C=C/C(C)=C/C(=O)O)cc2c(c1Cl)OC(C)(C)C=C2C(C)C [Compound 49, 7-(8-Chloro-4-isopropyl-7-methoxy-2,2-dimethyl-2H-chromen-6-y)-3-methyl-octa-2E,4E,6Z-trienoic acid]	4100	0.3	132	12	2	0.1	97	93
COc1cc2c(cc1\C(C)=C(F)/C=C/C(C)=C/C(=O)O)C(C(C)C)=CC(C)(C)O2 [Compound 121, (2E,4E,6E)-6-Fluoro-7-(4-isopropyl-7-methoxy-2,2-dimethyl-2H-chromen-6-yl)-3-methyl-octa-2,4,6-trienoic acid]	2100	10	46600	–	7	5	79	59
CC/C(=C(F)/C=C/C(C)=C/C(=O)O)c1cc2c(cc1OC)OC(C)(C)C=C2C [Compound 129, 6-Fluoro-7-(7-methoxy-2,2,4-trimethyl-2H-chromen-6-yl)-3-methyl-nona-2E,4E,6E-trienoic acid]	490	53	563	24	69	44	108	99
CC/C(=C(F)/C=C/C(C)=C/C(=O)O)c1cc2c(cc1OC)OC(C)(C)C=C2C(C)C [Compound 130, 6-Fluoro-7-(4-isopropyl-7-methoxy-2,2-dimethyl-2H-chromen-6-yl)-3-methyl-nona-2E,4E,6E-trienoic acid]	547	0.6	65	31	3	0.5	86	80
CC/C(=C(F)/C=C/C(C)=C/C(=O)O)c1cc2c(cc1OC)OC(C)(C)C=C2C(C)(C)C [Compound 131, 7-(4-tert-Butyl-7-methoxy-2,2-dimethyl-2H-chromen-6-yl)-6-fluoro-3-methyl-nona-2E,4E,6E-trienoic acid]	843	8	116	13	10	6	53	37
CCOc1cc2c(cc1\C(CC)=C(F)/C=C/C(C)=C/C(=O)O)C(C)=CC(C)(C)O2 [Compound 132, 7-(7-Ethoxy-2,2,4-trimethyl-2H-chromen-6-yl)-6-fluoro-3-methyl-nona-2E,4E,6E-trienoic acid]	548	> 1000	710	8	124	759	–	15
CC/C(=C(F)/C=C/C(C)=C/C(=O)O)c1cc2c(c(Cl)c1OC)OC(C)(C)C=C2C(C)C [Compound 171, 7-(8-Chloro-4-isopropyl-7-methoxy-2,2-dimethyl-2H-chromen-6-yl)-6-fluoro-3-methyl-nona-2E,4E,6E-trienoic acid]	381	0.04	49	13	1.3	0.02	95	87
CCOc1cc2c(cc1\C(=C/C=C/C(C)=C/C(=O)O)CC)C(C)=CCC2(C)C [Compound A-16, 7-(3-Ethoxy-5,5,8-trimethyl-5,6-dihydronaphthalen-2-yl)-3-methyl-nona-2E,4E,6Z-trienoic acid]	610	32	242	21	8.7	12	26	39
CCOc1cc2c(cc1\C(C)=C/C=C/C(C)=C/C(=O)O)C(C(C)(C)C)=CCC2(C)C [Compound A-17, 7-(8-tert-Butyl-3-ethyloxy-5,5-dimethyl-5,6-dihydronaphthalen-2-yl)-3-methyl-octa-2E,4E,6Z-trienoic acid]	401	0.9	50	7	2.4	0.6	73	85
CCOc1cc2c(cc1\C(=C/C=C/C(C)=C/C(=O)O)CC)C(C(C)(C)C)=CCC2(C)C [Compound A-18, 7-(8-tert-butyl-3-ethyoxy-5,5-dimethyl-5,6-dihydronaphthalen-2-yl)-3-methyl-nona-2E,4E,6Z-trienoic acid]	137	2.7	15	7	5	2.6	11	18
